Measured values published in patent US20220213049A1, “S[…]-4-ONE FOR THE TREATMENT AND PROPHYLAXIS OF HEPATITIS B VIRUS INFECTION” (priority 2019, published 2022).

Assays:
[1] = system: HBeAg (surrogate marker for cccDNA) in HepDES19 cells; assay: Engineered HepDES19 primary screen assay (HBeAg ELISA); type: cell-based, HBV; conditions: Hepatitis B virus, HepDES19, 120 h, read-out: IC50 (HBeAg level, HepDES19 primary screen assay)
From the text: The assay was employed to screen for novel cccDNA inhibitors. HepDES19 is a cccDNA-producing cell line. In this cell line, HBeAg in the cell culture supernatant as surrogate marker, as HBeAg production depends on cccDNA level and activity. HepDES19 is an engineered cell line which contains a 1.1 unit length HBV genome, and pgRNA transcription from the transgene is controlled by Tetracycline (Tet). In the absence of Tet, pgRNA transcription will be induced, but HBV e antigen (HBeAg) could not be produced from this pgRNA due to very short leader sequence before the HBeAg start codon and the start codon is disrupted. Only after cccDNA is formed, the missing leader sequence and start codon mutation would be restored from the 3′-terminal redundancy of pgRNA, and then HBeAg could be synthesized. Therefore, HBeAg could be used as a surrogate marker for cccDNA (Zhou, T. et al., Antiviral Res. (2006), 72(2), 116-124; Guo, H. et al., J. Virol. (2007), 81(22), 12472-12484).
HepDES19 cells were seeded at 2×10^6 cells per T150 flask and cultured with the culture medium (Dulbecco's Modified Eagle Medium: Nutrient Mixture F-12 [DMEM-F12, Gibco Cat. 11320-82], 10% Fetal Bovine Serum [FBS, Clontech Cat. 631101], 0.1 mM Non-Essential Amino Acids Solution [NEAA, Gibco Cat. 11140-050], 50 μg/mL Penicillin-Streptomycin [PS, Invitrogen Cat. 15140-163], 500 μg/mL Geneticin [G418, Invitrogen Cat. 10131-027]) containing 3 μg/mL Tet (Sigma, Cat. 87128) for 5 days. Cells were then seeded at 4×10^6 cells per T150 in the same culture medium as described above in the absence of Tet for 8 days. Cells were then harvested and frozen at density of 2×10^6 cells per ML. For compound testing, the frozen cells were thawed and seeded into 96-well plates at a density of 6×10^4 cells per well. At 24 hours after seeding, half log serial dilutions of compounds made with Dimethyl sulfoxide (DMSO, Sigma, Cat. D2650) were further diluted with the same culture medium as described above before they were added to the cells to reach desired final compound concentrations and 1% DMSO concentration. Plates were then incubated at 37° C. for another 5 days before measurement of HBeAg level and cell viability. Intracellular HBeAg level were measured with enzyme-linked immunosorbent assay (ELISA) kit (Shanghai Kehua Diagnostic Medical Products Co., Ltd). Cell viability was assessed using Cell Counting Kit-8 (DonJindo, Cat. CK04-20). IC50 values were derived from the dose-response curve using 4 parameter logistic curve fit method.
The compounds of the present invention were tested for their capacity to inhibit extracellular HBeAg level as described herein.

[2] = system: HBV (extracellular HBsAg) in PHH; assay: Cryopreserved primary human hepatocytes (PHH) HBV infection assay, HBsAg CLIA; type: cell-based; conditions: Hepatitis B virus, Hepatocyte, 216 h, read-out: HBsAg IC50
Description: This assay is used to confirm the anti-HBV effect of the compounds in HBV PHH infection assay. Cryopreserved PHH (BioreclamationIVT, Lot YJM) was thawed at 37° C. and gently transferred into pre-warmed InVitroGRO HT medium (BioreclamationIVT, Cat. S03317). The mixture was centrifuged at 70 relative centrifugal force (RCF) for 3 minutes at RT, and the supernatant was discarded. Pre-warmed InVitroGRO CP medium (BioreclamationIVT, Cat #S03316) was added to the cell pellet to gently re-suspend cells. The cells were seeded at the density of 5.8×10^4 cells per well to collagen I coated 96-well plate (Gibco, Cat. A1142803) with the InVitroGRO CP medium. All plates were incubated at 37° C. with 5% CO2 and 85% humidity.
At 20 hours after plating, the medium was changed to PHH culture medium (Dulbecco's Modified Eagle Medium (DMEM)/F12 (1:1) (Gibco, Cat. 11320-033), 10% fetal bovine serum (Gibco Cat. 10099141), 100 U/mL penicillin, 100 μg/mL streptomycin (Gibco, Cat. 151401-122), […] (Invitrogen Cat. PHG0311L), 20 ng/mL dexamethasone (Sigma, Cat. D4902) and 250 ng/mL human recombinant insulin (Gibco, Cat. 12585-014)). And the cells were incubated at 37° C. with 5% CO2 and 85% humidity for 4 hours. The medium was then changed to pre-warmed PHH culture medium containing 4% polyethylene glycol (PEG) MW8000 (Sigma, Cat. P1458-50ML) and 1% DMSO (Sigma, Cat. D2650). 5.8×10^6 genomic equivalents of HBV were added into the medium.
At 24 hours post-infection, the cells were gently washed with PBS and refreshed with PHH culture medium supplemented with 1% DMSO, and 0.25 mg/mL Matrix gel (Corning, Cat. 356237) at 200 μL per well. All plates were immediately placed in at 37° C. CO2 incubator.
24 hours later, serial dilutions of compounds made with DMSO were further diluted with the same culture medium (PHH culture medium supplemented with 1% DMSO and 0.25 mg/mL Matrix gel as described above) before they were added to the cells to reach desired final compound concentrations and 1% DMSO concentration. The medium containing the compounds were refreshed every three days.
At 9 days post-compound treatment, extracellular HBsAg level were measured with Chemiluminescence Immuno Assay (CLIA) kit (Autobio, HBsAg Quantitative CLIA). Extracellular HBV DNA was extracted by MagNA Pure 96 system (Roche) and then determined by quantitative PCR with the following primers and probe: […]
HBsAg IC50 and HBV DNA IC50 values were derived from the dose-response curve using 4 parameter logistic curve fit method. The compounds of formula (I) have HBsAg IC50<20 μM, particularly <1 μM; and HBV DNA IC50<50 μM.

Molecule COc1cc(Br)c(OCCO[C@H]2C[C@@H](C(=O)O)C2)cc1-c1cc(=O)c2cccc(Cl)c2o1 [Example 1, Cis-3-[2-[2-bromo-5-(8-chloro-4-oxo-chromen-2-yl)-4-methoxy-phenoxy]ethoxy]cyclobutanecarboxylic acid] has an IC50 [1] of 3180 nM and an IC50 [2] of 8.02 µM.
COc1cc(Br)c(OCCC(=O)O)cc1-c1cc(=O)c2cccc(Cl)c2o1 [Example 2, 3-[2-Bromo-5-(8-chloro-4-oxo-chromen-2-yl)-4-methoxy-phenoxy]propanoic acid] showed an IC50 [1] of 1190 nM and an IC50 [2] of 3.85 µM.
Work on COc1cc(Br)c(OC2CC(C(=O)O)C2)cc1-c1cc(=O)c2cccc(Cl)c2o1 (centres unmarked) [Example 5, 3-[2-Bromo-5-(8-chloro-4-oxo-chromen-2-yl)-4-methoxy-phenoxy]cyclobutanecarboxylic acid] yielded an IC50 [1] of 6080 nM and an IC50 [2] of 4.09 µM.
Molecule COc1cc(Cl)c(OCCO[C@H]2C[C@@H](C(=O)O)C2)cc1-c1cc(=O)c2cccc(Cl)c2o1 [Example 8, Cis-3-[2-[2-chloro-5-(8-chloro-4-oxo-chromen-2-yl)-4-methoxy-phenoxy]ethoxy]cyclobutanecarboxylic acid] has an IC50 [1] of 1500 nM and an IC50 [2] of 5.13 µM.
COc1cc(C)c(OCCCOCC(=O)O)cc1-c1cc(=O)c2cccc(Cl)c2o1 [Example 11, 2-[3-[5-(8-Chloro-4-oxo-chromen-2-yl)-4-methoxy-2-methyl-phenoxy]propoxy]acetic acid] was tested, and the IC50 [1] was 2430 nM and the IC50 [2] was 7.4 µM.
For Cc1ccc(-c2cc(=O)c3cccc(Cl)c3o2)cc1O[C@H]1C[C@@H](C(=O)O)C1 [Example 15, Cis-3-[5-(8-chloro-4-oxo-chromen-2-yl)-2-methyl-phenoxy]cyclobutanecarboxylic acid], the IC50 [1] was 490 nM and the IC50 [2] was 1.96 µM.
O=C(O)COc1cc(-c2cc(=O)c3cccc(Cl)c3o2)ccc1C(F)(F)F [Example 22, 2-[5-(8-Chloro-4-oxo-chromen-2-yl)-2-(trifluoromethyl)phenoxy]acetic acid] gave an IC50 [1] of 320 nM and an IC50 [2] of 6.59 µM.
In the case of COc1ccc(OCCO[C@H]2C[C@@H](C(=O)O)C2)cc1-c1cc(=O)c2cccc(Cl)c2o1 [Example 31, Cis-3-[2-[3-(8-Chloro-4-oxo-chromen-2-yl)-4-methoxy-phenoxy]ethoxy]cyclobutanecarboxylic acid], the IC50 [1] is reported as 4660 nM and the IC50 [2] is reported as 10.2 µM.
COc1c(-c2cc(=O)c3cccc(Cl)c3o2)ccc(Br)c1OC1CC(C(=O)O)C1 (centres unmarked) [Example 35, 3-[6-Bromo-3-(8-chloro-4-oxo-chromen-2-yl)-2-methoxy-phenoxy]cyclobutanecarboxylic acid] was tested, and the IC50 [1] was 190 nM and the IC50 [2] was 3.91 µM.
With COc1c(-c2cc(=O)c3cccc(Cl)c3o2)ccc(C)c1OC1CC(C(=O)O)C1 (centres unmarked) [Example 36, 3-[3-(8-Chloro-4-oxo-chromen-2-yl)-2-methoxy-6-methyl-phenoxy]cyclobutanecarboxylic acid] the IC50 [1] was 3130 nM and the IC50 [2] was 9.26 µM.
For COc1c(-c2cc(=O)c3cccc(Cl)c3o2)ccc(Br)c1OCCCNC(=O)C(=O)O [Example 44, 2-[3-[6-Bromo-3-(8-chloro-4-oxo-chromen-2-yl)-2-methoxy-phenoxy]propylamino]-2-oxo-acetic acid], the IC50 [1] was 1440 nM.
In the case of COc1cc(Br)c(OCCNC(=O)C(=O)O)cc1-c1cc(=O)c2cccc(Cl)c2o1 [Example 45, 2-[2-[2-Bromo-5-(8-chloro-4-oxo-chromen-2-yl)-4-methoxy-phenoxy]ethylamino]-2-oxo-acetic acid], the IC50 [1] is reported as 1400 nM.
Work on COc1cc(Br)c(OCCCNC(=O)C(=O)O)cc1-c1cc(=O)c2cccc(Cl)c2o1 [Example 46, 2-[3-[2-Bromo-5-(8-chloro-4-oxo-chromen-2-yl)-4-methoxy-phenoxy]propylamino]-2-oxo-acetic acid] yielded an IC50 [1] of 610 nM.
